The results in this text go back to patent US5607691A, “Compositions and methods for enhanced drug delivery” (priority 1995, dated 1997).

This data set in a line: in vitro. In kind it is in vitro ADME, human. The source says:
Table 4 lists the serum half-lives for several model compounds and two representative pharmaceutical agent-chemical modifier complexes using an in vitro assay system described in the Experimental section below. Of course, the serum half-lives will vary in vivo depending upon the age and health condition of the patient. Each complex comprises a model compound or a pharmaceutical agent, a spacer group, and a chemical modifier. Many of the model compounds utilize 4-nitrophenyl(ethanol, propanol, or cyclohexanol) or 4-nitrophenylethylamine as the "model" pharmaceutical agent. A more complete listing of serum half-lives may be found in the Experimental section below.
General procedure for serum hydrolysis of pharmaceutical agent-modifier complexes
Stock solutions (6 mM) of the pharmaceutical agent-modifier complexes were prepared in ethanol (by vortexing, sonication or warming at 37° C. if necessary). If required for solubility, a drop of dimethylsulfoxide, dimethylformamide or methanol may be added. (Acetonitrile cannot be used because it deactivates the serum enzymes.)
HPLC separation methods were established for each study by dilution of the above stock solution (6 μl) in acetonitrile (1 ml) to give a 36 μM solution. Samples (10 μl) were injected onto a Nucleosil 5C8 (250×4 mmID) and guard column (11×4 mm ID) and eluted with a mobile phase of approximately 65% HPLC grade water and 35% of a solution of 0.1% trifluoroacetic acid in acetonitrile, the exact proportions being adjusted in each case to give optimum separation and run times.
Freshly defrosted human serum (3 ml, Sigma) was warmed at 37° C. for five minutes and then 60 μl of the agent-modifier complex stock solution was added with vortexing. […] The aliquots were added to 800 μl of 2% zinc sulfate solution in a 1.5 ml disposable microcentrifuge tube, vortexed immediately and centrifuged at 14,000 RPM for 3 minutes. The supernatants (10 μl) were then injected onto the HPLC and peak areas were used to determine the % remaining. Serum blanks were prepared similarly by addition of serum to the zinc sulfate solution followed by centrifugation, and time=0 samples were also prepared by adding serum to the zinc sulfate solution followed by addition of the complex and separation by centrifugation. The time=0 samples, as well as the original stock solutions, were also used to study the stability of the complex in the absence of enzyme. Half-lives were calculated using the equation
by plotting time (x) vs. ln % remaining (y) to obtain the slope (m) and the y intercept (b).

Where [1] appears, read: human, serum, Table 5, human serum, 37° C., read-out: Serum Half-life (converted).
The mark [2] stands for this setting: human, serum, Table 4, human serum, 37° C., read-out: In vitro Half-Life (converted).
[3] abbreviates: human, serum, Table 4, read-out: serum half-life (converted).

Counter-ions that a name gives are not always drawn. Like-named read-outs stand apart in the source and are kept apart here.

Turning to “2-(4-nitrophenyl)ethylamine choline chloride carbamate”, where the note is “human, serum”, the “In vitro Half-Life” value was 86 h and the “Serum Half-life” value is 86 h.

Take `COC(=O)CC(CN(C)C)OC(=O)Cc1c(C)n(C(=O)c2ccc(Cl)cc2)c2ccc(OC)cc12` (racemic) [3-O-(indomethacinoyl)-D,L-norcarnitine methyl ester]: where the note is “Table 5, human serum, 37° C., listed as O-indomethacinyl-(D,L-norcarnitine methyl ester)”, the “Serum Half-life” value stood at 4.3 h. The half-life under setting [1] was 257 min.

Take `COC(=O)CC(C[N+](C)(C)C)OC(=O)Cc1c(C)n(C(=O)c2ccc(Cl)cc2)c2ccc(OC)cc12` (racemic) [O-indomethacinyl-(D,L-carnitine methyl ester), iodide salt]: under setting [1], the half-life is 660 min. As to `COc1cc(NC(=O)OCC[N+](C)(C)C)c(Cl)cc1C(=O)N[C@H]1CCN(CCCOc2ccc(F)cc2)C[C@H]1OC` (relative stereo) [cisapride choline carbamate, chloride salt], the half-life under setting [1] was 150 min. As to `COc1cc(NC(=O)c2ccc[n+](C)c2)c(Cl)cc1C(=O)N[C@H]1CCN(CCCOc2ccc(F)cc2)C[C@H]1OC` (relative stereo) [cisapride-(N-(1-methylpyridinium-3-carboxamide), chloride salt], the half-life under setting [1] was 60 min. For the molecule `COc1cc(N)c(Cl)cc1C(=O)N[C@H]1CC[N+](CCCOc2ccc(F)cc2)(COC(=O)CCCCC[N+](C)(C)C)C[C@H]1OC` (relative stereo) [cisapride-N-(6-trimethylammoniohexanoyloxymethylammonio), diiodide salt], the half-life under setting [1] was 60 min. Still for that read-out and setting: the value for `COc1cc(N)c(Cl)cc1C(=O)N[C@H]1CC[N+](CCCOc2ccc(F)cc2)(COC(C)=O)C[C@H]1OC` (relative stereo) [cisapride-N-acetoxymethylammonio, iodide salt] was 6.5 min. The same measure, in the same setting: the value for `CCCC(=O)OC[N+]1(CCCOc2ccc(F)cc2)CC[C@H](NC(=O)c2cc(Cl)c(N)cc2OC)[C@H](OC)C1` (relative stereo) [cisapride-N-butyroyloxymethylammonio, iodide salt] was 7.6 min. In the case of `CCOC(=O)OC[N+]1(CCCOc2ccc(F)cc2)CC[C@H](NC(=O)c2cc(Cl)c(N)cc2OC)[C@H](OC)C1` (relative stereo) [cisapride-N-ethyoxycarbonyloxymethylammonio, iodide salt], under setting [1], the half-life was 4.4 min. As to `CCCCCCCCCCCC(=O)OC[N+]1(CCCOc2ccc(F)cc2)CC[C@H](NC(=O)c2cc(Cl)c(N)cc2OC)[C@H](OC)C1` (relative stereo) [cisapride-N-lauroyloxymethylammonio, iodide salt], under setting [1], the half-life is 5.4 min.

As to `CC(=O)O[C@H](CC(=O)NCCCCCC(=O)OC(C)Cc1ccc([N+](=O)[O-])cc1)C[N+](C)(C)C` (stereo partly drawn) [1-(4-nitrophenyl)-2-propanol 6-(O-acetyl-L-carnitinamido)hexanoate ester], the half-life was 21.4 min under setting [2], 21.4 min under setting [3] and 21.4 min under setting [1]. In the case of `CC(=O)O[C@H](CC(=O)NCCCCCCOC(=O)OC(C)Cc1ccc([N+](=O)[O-])cc1)C[N+](C)(C)C` (stereo partly drawn) [1-(4-nitrophenyl)-2-propanol 6-(O-acetyl-L-carnitinamido)hexanol carbonate, chloride salt], the half-life runs as follows: under setting [2], 3.5 min; under setting [1], 3.5 min.

`CC(=O)O[C@H](CC(=O)NCCCCCC(=O)OCCc1ccc([N+](=O)[O-])cc1)C[N+](C)(C)C` [2-(4-Nitrophenyl)ethanol 6-(O-acetyl-L-carnitinamido)hexanoate ester, chloride salt]: the half-life reads like this: under setting [2], 0.132 min; under setting [3], 0.132 min; under setting [1], 0.132 min. Turning to `O=C(OCCc1ccc([N+](=O)[O-])cc1)c1ccc(N2CCOCC2)cc1` [2-(4-nitrophenyl)ethanol 4-morpholino benzoate], the “In vitro Half-Life” value (human, serum) came to 0.0127 h. Regarding `O=C(OCCc1ccc([N+](=O)[O-])cc1)c1ccc(CN2CCOCC2)cc1` [2-(4-nitrophenyl)ethanol 4-morpholinomethyl-benzoate], the half-life under setting [1] is 0.762 min.

For `O=C(CCCCCN1CCOCC1)OCCc1ccc([N+](=O)[O-])cc1` [2-(4-nitrophenyl)ethanol 6-morpholino-hexanoate], the half-life runs as follows: under setting [2], 0.463 min; under setting [1], 0.463 min. `C[N+](C)(C)CCOC(=O)OCCc1ccc([N+](=O)[O-])cc1` [2-(4-nitrophenyl)ethanol choline chloride carbonate ester]: the half-life under setting [2] is under 0.0333 min and the half-life under setting [1] is under 0.0333 min. As to `CC(=O)O[C@H](CC(=O)NCCC(=O)OCCc1ccc([N+](=O)[O-])cc1)C[N+](C)(C)C` [2-(4-nitrophenyl)ethyl 3-(O-acetyl-L-carnitinamido)propanoate], the half-life is, setting by setting: under setting [2], 5.5 min; under setting [3], 5.5 min; under setting [1], 5.5 min.

Consider `CC(=O)O[C@H](CC(=O)NCCc1ccc([N+](=O)[O-])cc1)C[N+](C)(C)C` [2-(4-nitrophenyl)ethylamine 3-(O-acetyl)-L-carnitine amide, chloride salt], for which the half-life runs as follows: under setting [2], 1570 min; under setting [1], 1570 min. In the case of `C[C@]12CC[C@@H]3c4ccc(OC(=O)OCC[N+](C)(C)C)cc4CC[C@H]3[C@@H]1CC[C@@H]2O` [3,17β-estradiol-3-choline carbonate, iodide salt], under setting [1], the half-life is 1.53 min. On to `C[C@]12CC[C@@H]3c4ccc(O)cc4CC[C@H]3[C@@H]1CC[C@@H]2OC(=O)C[N+](C)(C)C` [3,17β-estradiol-17β-betaine ester, chloride salt], for which, under setting [1], the half-life was 270 min.

As for `C[C@]12CC[C@@H]3c4ccc(O)cc4CC[C@H]3[C@@H]1CC[C@@H]2OC(=O)OCC[N+](C)(C)C` [3-hydroxy-17β-estra-trienyl N,N,N-trimethylaminoethyl carbonate, iodide salt], the half-life under setting [1] was 16 min. `CC(=O)O[C@H](CC(=O)OCCCCCCOC(=O)O[C@H]1CC[C@H]2[C@@H]3CCc4cc(O)ccc4[C@H]3CC[C@]12C)C[N+](C)(C)C` [3-hydroxy-estra-1,3,5-trien-17β-yl 6-(O-acetyl-L-carnitinato)hexyl carbonate, chloride salt]: under setting [2], the half-life was 240 min. On to `C[N+](C)(C)CCOC(=O)OC1CCC(c2ccc([N+](=O)[O-])cc2)CC1` (stereo not shown) [4-(4-nitrophenyl)cyclohexanol choline carbonate ester, iodide salt], for which the half-life under setting [2] is 0.327 min and the half-life under setting [1] was 0.327 min. As for `CCCC(=O)OCn1c(=O)c(F)cn(C(C)OC(=O)CCC[N+](C)(C)C)c1=O.[I-]` (stereo not shown) [5-fluorouracil-1-(4-trimethylammoniobutyroyl-1-oxyethyl)-3-(butyroyloxymethyl), iodide salt], where the note is “Table 5, human serum, 37° C.”, the “Serum Half-life” value was 0.162 h. In the case of `CCCC(=O)OCn1c(=O)c(F)cn(COC(=O)CCC[N+](C)(C)C)c1=O` [5-fluorouracil-1-(4-trimethylammoniobutyroyloxymethyl)-3-(butyroyloxymethyl), iodide salt], the half-life under setting [1] was 204 min. For `CCCCCCCCCCCC(=O)OCn1c(=O)c(F)cn(C(C)OC(=O)CCC[N+](C)(C)C)c1=O.[I-]` (stereo not shown) [5-fluorouracil-1-(N-(4-trimethylammoniobutyroyloxy-1-ethyl)-3-(N-lauroyloxymethyl), iodide salt], the “Serum Half-life” value (Table 5, human serum, 37° C.) came out at 0.217 h. As for `CCCCCCCCCCCC(=O)OCn1c(=O)c(F)cn(COC(=O)CCC[N+](C)(C)C)c1=O` [5-fluorouracil-1-(N-(4-trimethylammoniobutyroyloxymethyl)-3-(N-lauroxyoxymethyl), iodide salt], under setting [1], the half-life was 192 min. `CCCCCCCCCCCC(=O)OCn1cc(F)c(=O)[nH]c1=O` [5-fluorouracil-1-(lauroyloxmethyl)]: under setting [1], the half-life is 3.23 min. Take `CCCCCCCCCCCC(=O)OCn1cc(F)c(=O)n(COC(=O)CCC[N+](C)(C)C)c1=O` [5-fluorouracil-1-(lauroyloxymethyl)-3-(4-trimethylammoniobutyroxyoxymethyl), iodide salt]: under setting [1], the half-life was 420 min. `CCCCCCCCCCCC(=O)OCn1cc(F)c(=O)n(COC(=O)OCC[N+](C)(C)C)c1=O` [5-fluorouracil-1-(lauroyloxymethyl)-3-(cholinecarbonyloxymethyl), iodide salt]: the half-life under setting [1] was 27 min. Take `CC(=O)O[C@H](CC(=O)Oc1ccc2c(c1)CC[C@@H]1[C@@H]2CC[C@]2(C)[C@@H](O)CC[C@@H]12)C[N+](C)(C)C` [17β-estradiol-3-(O-acetyl-L-carnitine) ester]: the half-life under setting [1] is 8 min. As to `CC(=O)O[C@H](CC(=O)O[C@H]1CC[C@H]2[C@@H]3CCc4cc(O)ccc4[C@H]3CC[C@]12C)C[N+](C)(C)C` [17β-estradiol-17β-(O-acetyl-L-carnitine) ester], under setting [1], the half-life is 240 min.
